Patent publication US9089136B2, “Pyrimidine compound and use thereof for pest control” (Sumitomo Chemical Company, Limited, priority 2010, dated 2015)

Legend:
[1] = system: Aphis gossypii; assay: Test Example 1: spray test against Aphis gossypii on cucumber seedling; format: in vivo; conditions: 144 h, 500 ppm active ingredient, formulation of Formulation Example 5 diluted with water, 20 ml sprayed on cucumber seedling, six days after spraying
Experimental: On the other hand, about 30 Aphis gossypii were incubated on a cucumber seeding (the first true leaf stage) planted in a plastic cup, and leaving it for a day. 20 ml of each of the above test spray solutions was sprayed on this seeding. Six days after spraying, the number of the surviving Aphis gossypii parasitized on the leaves of the cucumber was examined, and a control value was calculated according to the following equation: Control value(%)={1−(Cb×Tai)/(Cai×Tb))×100 wherein symbols represent as follows: Cb: the number of insects in a non-treated section before treatment, Cai: the number of insects in a non-treated section in observation, Tb: the number of insects in a treated-section before treatment, Tai: the number of insects in a treated-section in observation.

[2] = system: Bemisia tabaci; assay: Test Example 2: spray test against Bemisia tabaci instar larvae on tomato seedling; format: in vivo; conditions: 168 h, 500 ppm active ingredient, formulation of Formulation Example 5 diluted with water, 10 ml/cup sprayed on tomato seedling, greenhouse at 25° C., after 7 days
Experimental: On the other hand, Bemisia tabaci adult was released on a tomato seeding (the third true leaf stage) planted in a polyethylene cup, and made to lay eggs for about 24 hours. The tomato seedling was kept in a greenhouse for 8 days. When instar larvae hatched from the eggs, the above test spray solution was sprayed in the amount of 10 ml/cup. The cup was kept in a greenhouse at 25° C. After the keeping for 7 days, the number of surviving instar larvae on the tomato leaves was examined, and a control value was calculated according to the following equation: Control value(%)={1−(Cb×Tai)/(Cai×Tb))×100 wherein symbols represent as follows: Cb: the number of pests in a non-treated section before treatment, Cai: the number of pests in a non-treated section in observation, Tb: the number of pests in a treated-section before treatment, Tai: the number of pests in a treated-section in observation.

CC[S+]([O-])c1cncnc1-c1nc2cc(C(F)(F)F)ccc2n1C (stereo not shown) [Compound 8]
pest or weed control at 500 ppm [1]: ≥ 90%
pest or weed control at 500 ppm [2]: ≥ 90%

Cn1c(-c2ncncc2OCC(F)(F)F)nc2cc(C(F)(F)F)cnc21 [Compound 3]
pest or weed control at 500 ppm [1]: ≥ 90%
pest or weed control at 500 ppm [2]: ≥ 90%

CCS(=O)(=O)c1cncnc1-c1nc2cc(C(F)(F)F)ccc2n1C [Compound 9]
pest or weed control at 500 ppm [1]: ≥ 90%
pest or weed control at 500 ppm [2]: ≥ 90%

CCSc1cncnc1-c1nc2cc(C(F)(F)F)cnc2n1C [Compound 4]
pest or weed control at 500 ppm [1]: ≥ 90%
pest or weed control at 500 ppm [2]: ≥ 90%

CCS(=O)(=O)c1cncnc1-c1nc2cc(C(F)(F)F)cnc2n1C [Compound 6]
pest or weed control at 500 ppm [1]: ≥ 90%
pest or weed control at 500 ppm [2]: ≥ 90%

CCSc1cncnc1-c1nc2cc(C(F)(F)F)ccc2n1C [Compound 7, 2-(5-ethylthiopyrimidin-4-yl)-1-methyl-5-trifluoromethyl-1H-benzimidazole]
pest or weed control at 500 ppm [1]: ≥ 90%
pest or weed control at 500 ppm [2]: ≥ 90%

CCc1cncnc1-c1nc2cc(C(F)(F)F)cnc2o1 [Compound 15]
pest or weed control at 500 ppm [1]: ≥ 90%
pest or weed control at 500 ppm [2]: ≥ 90%

Cn1c(-c2ncncc2Cl)nc2cc(C(F)(F)F)cnc21 [Compound 13]
pest or weed control at 500 ppm [1]: ≥ 90%
pest or weed control at 500 ppm [2]: ≥ 90%

Cn1c(-c2ccncn2)nc2cc(C(F)(F)F)ccc21 [Compound 2]
pest or weed control at 500 ppm [1]: ≥ 90%
pest or weed control at 500 ppm [2]: ≥ 90%

CC[S+]([O-])c1cncnc1-c1nc2cc(C(F)(F)F)cnc2n1C (stereo not shown) [Compound 5]
pest or weed control at 500 ppm [1]: ≥ 90%
pest or weed control at 500 ppm [2]: ≥ 90%

CCc1cncnc1-c1nc2cc(C(F)(F)F)ccc2o1 [Compound 10]
pest or weed control at 500 ppm [1]: ≥ 90%
pest or weed control at 500 ppm [2]: ≥ 90%
